This is an account of results in ChEMBL document CHEMBL1132856, “Antitumour activity of sphingoid base adducts of phenethyl isothiocyanate” (2000).

For experiment [1], the system named is Leukemia 60 cell line. Nature of the experiment: Median growth inhibitory concentration of compound tested in vitro against human leukemia 60 cells. Format: functional.
Experiment [2] deals with Leukemia 60 cell line. Nature of the experiment: Median toxic concentration of compound tested in vitro against human leukemia 60 cells. Format: functional. The conditions noted are these: read-out: TC50 (the source's name).

`CCCCCCCCCCCCCCCC(O)C(CO)/N=C(\S)NCCc1ccccc1` (stereo not given) came in with a GC50 with Leukemia 60 cell line [1] of 1600 nM. The CC50 in the experiment on Leukemia 60 cell line [2] was determined as 2370 nM.

For `CCCCCCCCCCCCC/C=C\C(O)C(CO)/N=C(\S)NCCc1ccccc1` (stereo not given), in the experiment with Leukemia 60 cell line [1], the GC50 is 640 nM. Also, the CC50 with Leukemia 60 cell line [2] turned out to be 2530 nM.

`CCCCCCCCCCCCCCC[C@@H](O)[C@@H](N)CO` [DIHYDROSPINGOSINE] showed a GC50 with Leukemia 60 cell line [1] of 490 nM. Also, the CC50 in the experiment on Leukemia 60 cell line [2] was 2550 nM.

Regarding `S=C=NCCc1ccccc1` [PHENETHYLISOTHIOCYANATE], the GC50 with Leukemia 60 cell line [1] worked out at 840 nM. Moreover, the CC50 with Leukemia 60 cell line [2] is 1370 nM.

The compound `CCCCCCCCCCCCCC=C[C@@H](O)[C@@H](N)CO` [SPHINGOSINE] returned a GC50 in the experiment on Leukemia 60 cell line [1] of 1240 nM. The CC50 with Leukemia 60 cell line [2] amounted to 2420 nM.
